Measurements: PMC5823406, “Vehicle development, pharmacokinetics and toxicity of the anti-invasive agent 4-fluoro-3’,4’,5’-trimethoxychalcone in rodents” (PLoS ONE, 2018)
Like-named read-outs stand apart in the source and are kept apart here.

Test: Whole-blood PK study (IV, IP and PO) in male CD-1 mice
Format: in vivo, mouse
Settings: for Bioavailability: read-out: Bioavailability; for cmax: read-out: cmax; for concentration at 0.5 h: 0.50 h; for Vd: read-out: Vss; for Tmax: CD-1, whole blood
Experimental: Nine male CD-1 mice (25–35 g) were obtained from Hilltop Labs. Duration of acclimation was at least two days. Animals were randomly assigned to the three dose groups (IV, PO, intraperitoneal (IP), N = 3 per group), healthy at the start of the trial, housed one per cage (conventional type with wood chip bedding material), identified by a cage label and maintained in a well-controlled temperature (20–24 C) and humidity (30%-70%) environment with 12 h light/dark cycles. Animals intended for IV dosing were fitted with a jugular vein cannula (JVC, procedure see rat plasma PK study above). The study was not blinded. Food was withheld from the animals for a minimum of 12 h prior to test article administration until 4 h post-dose. Water was offered ad libitum.
C16 was dosed in cassette together with two undisclosed compounds of similar chemical structure. The dose of each test article was 1 mg/kg (IV, JVC, 0.5 mg/mL) or 10 mg/kg (IP and PO gavage, 2 mg/mL). Two respective dosing solutions were prepared (protocol see above) containing 0.5 and 2 mg/mL of C16 (and equal concentrations of the other two test articles) in 20% DMSO / 10% (DMSO / Cremophor EL 1:1) / 70% H2O. Formulations were prepared one day prior to dosing and stored at 4 °C.
Blood samples were taken pre-dose and 5 (except for PO administration), 15, 30 min, 1, 2, 4, and 8 h after dosing. The samples were collected via the tail vein or by cardiac puncture (8 h time point). Blood (25 μL) was collected and pipetted into a tube with 25 μL heparinized water (1 μL of sodium heparin (1000 unit/ml) + 24 μL water) within 30 seconds of collection. The sample was pipetted up and down five times, immediately frozen on dry ice and stored at -60°C to -80°C until analyzed. No necropsy was performed.
Pharmacokinetic parameters were estimated by a non-compartmental model using WinNonlin (v5.2.1 or higher) software. The maximum plasma/blood concentrations (c0) after IV dosing were estimated by extrapolation of the first two time points back to t = 0. The maximum blood concentration (cmax) and the time to reach maximum blood drug concentration (tmax) after PO dosing were derived from the data. The area under the time-concentration curve (AUC) was calculated using the linear trapezoidal rule with calculation to the last quantifiable data point, and with extrapolation to infinity if applicable. Plasma/blood half-life (t1/2) was calculated from 0.693/slope of the terminal elimination phase. Mean residence time (MRT) was calculated by dividing the area under the moment curve (AUMC) by the AUC. Clearance (CL) was calculated from dose/AUC. Steady-state volume of distribution (Vss) was calculated from CL*MRT. Bioavailability was determined by dividing the individual dose-normalized PO AUC values by the respective average dose-normalized intravenous (IV) AUC value. Samples that were below the limit of quantification were not used in the calculation of averages, and were treated as zero for pharmacokinetic data analysis. […]
Sprague-Dawley rats at 10 mg/kg (in 100% DMSO). […]
c Bioavailability determined by dividing the individual dose normalized oral AUC last by the average dose normalized intravenous AUC last value. […]
The dosing solution was prepared as a cassette to contain all three test articles in the same solutions using a vehicle
consisting of 20% DMSO/10% (DMSO/Cremophor EL 1:1)/70% Milli-Q water.
Individual blood concentrations and pharmacokinetic parameters are shown in Table H through Table J. All data are
expressed as ng/mL of the free drug. Samples that were below the limit of quantification were not used in the
calculation of averages. Concentration versus time data are plotted in Fig D through Fig F.
Table H. Individual blood concentrations (ng/mL) and PK parameters for C16 after IV administration in male CD-1 mice at 1 mg/kg.
t (h) 0 (pre-dose) BLOQ BLOQ BLOQ
(1 picture or pasted object on this page, not shown here)

[1] = male, CD-1, mouse, whole blood, ip, 10 mg/kg, male CD-1 mouse, IP 10 mg/kg, average
[2] = male, CD-1, mouse, whole blood, ip, 10 mg/kg, mouse blood, IP 10 mg/kg, individual animals 4-6
[3] = male, CD-1, mouse, whole blood, ip, 10 mg/kg, mouse, IP 10 mg/kg, animals 4-6, read-out: Individual blood concentration
[4] = male, CD-1, mouse, whole blood, ip, 10 mg/kg, whole blood, male CD-1 mouse, IP 10 mg/kg, average
[5] = male, CD-1, mouse, whole blood, iv, 1 mg/kg, male CD-1 mouse, IV 1 mg/kg, average
[6] = male, CD-1, mouse, whole blood, iv, 1 mg/kg, mouse blood, IV 1 mg/kg, individual animals 1-3
[7] = male, CD-1, mouse, whole blood, iv, 1 mg/kg, mouse, IV 1 mg/kg, animals 1-3, read-out: Individual blood concentration
[8] = male, CD-1, mouse, whole blood, po, 10 mg/kg, male CD-1 mouse, PO 10 mg/kg, average
[9] = male, CD-1, mouse, whole blood, po, 10 mg/kg, mouse blood, PO 10 mg/kg, individual animals 7-9
[10] = male, CD-1, mouse, whole blood, po, 10 mg/kg, whole blood, male CD-1 mouse, PO 10 mg/kg, average

With `COc1cc(C(=O)/C=C/c2ccc(F)cc2)cc(OC)c1OC` [C16, 4-fluoro-3’,4’,5’-trimethoxychalcone] the “time of maximum blood concentration” value (male CD-1 mouse, IP 10 mg/kg) was 15 min, the “time of maximum blood concentration” value (male CD-1 mouse, PO 10 mg/kg) was 15 min and the AUC(0-inf) [1] was 114 ng·h/mL. The AUC(0-t) [1] was 109 ng·h/mL, the MRT last [1] was 48 min and the half-life [1] was 48 min. The AUC(0-inf) [2] was 101 ng·h/mL, the AUC(0-t) [2] was 99.2 ng·h/mL and the MRT last [2] was 59.5 min. For the same molecule, the half-life [2] was 38.2 min, the Bioavailability [2] was 49.7% and the cmax [2] was 90.3 ng/mL. The concentration at 0.25 h [3] was 90.3 ng/mL, the concentration at 0.5 h [3] was 48.2 ng/mL and the concentration at 1 h [3] was 49.2 ng/mL. It also gave a concentration at 2 h [3] of 13.4 ng/mL, a Bioavailability [4] of 54.7% and a cmax [4] of 107 ng/mL. It also gave an AUC(0-inf) [5] of 22.4 ng·h/mL, an AUC(0-t) [5] of 20 ng·h/mL and an MRT last [5] of 26 min. The clearance [5] was 750 mL/min/kg, the half-life [5] was 44.8 min and the C0 (male, CD-1, mouse, whole blood, iv, 1 mg/kg, male CD-1 mouse, IV 1 mg/kg, average, extrapolated to t = 0) was 76 ng/mL. For the same molecule, the AUC(0-inf) [6] was 22.9 ng·h/mL, the AUC(0-t) [6] was 20.2 ng·h/mL and the MRT last [6] was 25.6 min. For the same molecule, the clearance [6] was 727 mL/min/kg, the half-life [6] was 49.4 min and the Vd [6] was 32.8 L/kg. The concentration at 0.083 h (male, CD-1, mouse, whole blood, iv, 1 mg/kg, mouse, IV 1 mg/kg, 0.083 h, animals 1-3, read-out: Individual blood concentration) was 46.4 ng/mL, the concentration at 0.25 h [7] was 17.3 ng/mL and the concentration at 0.5 h [7] was 8.4 ng/mL. It also gave a concentration at 1 h [7] of 4.5 ng/mL, a concentration at 2 h [7] of 2.28 ng/mL and a Vd (male, CD-1, mouse, whole blood, iv, 1 mg/kg, whole blood, male CD-1 mouse, IV 1 mg/kg, average) of 32.6 L/kg. For the same molecule, the AUC(0-t) [8] was 20.9 ng·h/mL, the MRT last [8] was 82.8 min and the half-life (male, CD-1, mouse, whole blood, po, 10 mg/kg, mouse blood, PO 10 mg/kg, individual animal 7) was 176 min. For the same molecule, the AUC(0-t) [9] was 23.2 ng·h/mL, the Bioavailability [9] was 11.6% and the Bioavailability [10] was 10.5%. The cmax [10] was 12.5 ng/mL, the Tmax (male, mouse blood, IP 10 mg/kg, individual animals 4-6) was 15 min and the Tmax (male, mouse blood, IV 1 mg/kg, individual animals 1-3) was 0 min.
